# From US20070155752A1, “2-Amino-o4-substituted pteridines and their use as inactivators of o6-alkylguanine-dna alkyltransferase” (Government of the United States of America,, priority 2004, published 2007)
# Read-outs that look alike come from different tables or passages of the source. Marks after values point to notes of the source that are not given here.
# Tests used:
# HT29 cells = conditions: for Enhancement of HT29 cell killing by BCNU / ED90, concentration required to kill 90% of HT29 cells with BCNU: BCNU 40 μM
# A549 lung tumor cells = assay: Colony-forming cytotoxicity assay with BCNU, A549 cells; assay type: cell-based; conditions: 40 μM BCNU, 2 hr exposure in folate free medium
# Method: (§1) 2-Amino-O^4-benzyl-6-carboxypteridine (5) is not effective probably because the negative charge on the molecule at physiological pH prevents its easy entry into cells. However, even though O^4-benzylfolic acid is also anionic at physiological pH, it does enhance cell killing by BCNU. Furthermore, its effectiveness as an adjuvant is a function of the cells' ability to express the α-form of the folic acid receptor. […] KB cell killing by 80 μM BCNU in combination with 7 is also illustrated. For these experiments (FIG. 2) cells were grown in RPMI medium, were incubated with 7 for 2 hr and were then treated with either 40 μM BCNU (A549, HT29 and KB cells) or 80 μM BCNU (KB cells) for 2 hr. The medium was then replaced with fresh medium containing no 7. Cells were kept for 16-18 hr before being replated. […]
# (§2) Cells were grown either in Dulbecco's modified Eagle's medium supplemented with 10% fetal bovine serum plus 1.5 mM glutamine and 50 μg/mL gentamycin (HT29) or in RPMI 1640 medium in the presence of 10% fetal bovine serum (HT29, A549 and KB cells). The effect of AGT inactivators on the sensitivity of cells to BCNU was determined using a colony-forming assay.^13 Cells were plated at a density of 10^6 in 25-cm^2 flasks and 24 h later were incubated with different concentrations of AGT inactivator for 2 h before exposure to 40 μM (HT29 cells and A549 cells) or 80 μM (KB cells) of BCNU for 2 h. […]
# [1] = system: KB nasopharyngeal tumor cells; assay: Colony-forming cytotoxicity assay with BCNU, KB cells; assay type: cell-based; conditions: 40 μM or 80 μM BCNU, 2 hr exposure in folate free medium
# Method: as §1, §2
# [2] = target: T1, P140K mutant alkyltransferase (Homo sapiens, UniProt P16455, P140K); conditions: cited from earlier work
# T1 construct: His tag
# T1 sequence (P16455 1-207 P140K): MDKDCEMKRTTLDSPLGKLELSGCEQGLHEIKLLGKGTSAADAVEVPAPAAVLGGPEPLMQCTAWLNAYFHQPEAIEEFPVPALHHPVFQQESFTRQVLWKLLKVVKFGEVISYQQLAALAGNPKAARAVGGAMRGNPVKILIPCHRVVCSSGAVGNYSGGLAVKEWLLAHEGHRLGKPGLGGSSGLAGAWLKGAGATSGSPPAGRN
# [3] = Dulbecco's medium, inactivator present before, during and after BCNU for 16-18 hours
# [4] = RPMI medium, inactivator present before and during BCNU only
smiles,measurement,setting,value
"Nc1nc(OCc2ccccc2)c2nccnc2n1 [Compound 1, 2-amino-O^4-benzylpteridine]",Enhancement of HT29 cell killing by BCNU,HT29 cells,capable of enhancing
same,"ED90, concentration required to kill 90% of HT29 cells with BCNU",HT29 cells; [3],0.2^b μM
"Cc1nc2nc(N)nc(OCc3ccccc3)c2nc1C [Compound 2, 2-amino-O^4-benzyl-6,7-dimethylpteridine]",Enhancement of HT29 cell killing by BCNU,HT29 cells,capable of enhancing
same,"ED90, concentration required to kill 90% of HT29 cells with BCNU",HT29 cells; [3],0.6^b μM
"Nc1nc(OCc2ccccc2)c2nc(CO)cnc2n1 [Compound 4, 2-Amino-O^4-benzyl-6-hydroxymethylpteridine]",Enhancement of HT29 cell killing by BCNU,HT29 cells,capable of enhancing
same,"ED90, concentration required to kill 90% of HT29 cells with BCNU",HT29 cells; [3],0.7^b μM
"Nc1nc(OCc2ccccc2)c2nc(C(=O)O)cnc2n1 [Compound 5, 2-Amino-O^4-benzylpteridine-6-carboxylic acid]",Enhancement of HT29 cell killing by BCNU,HT29 cells,not effective
same,"ED90, concentration required to kill 90% of HT29 cells with BCNU",HT29 cells; [3],inactive
"Nc1nc(OCc2ccccc2)c2nc(C=O)cnc2n1 [Compound 6, 2-Amino-O^4-benzyl-6-formylpteridine]",Enhancement of HT29 cell killing by BCNU,HT29 cells,capable of enhancing
same,"ED90, concentration required to kill 90% of HT29 cells with BCNU",HT29 cells; [4],0.7^c μM
"Nc1nc(OCc2ccccc2)c2nc(CNc3ccc(C(=O)N[C@@H](CCC(=O)O)C(=O)O)cc3)cnc2n1 [Compound 7, O^4-Benzylfolic acid]",Effectiveness as an adjuvant for cell killing by BCNU (FIG. 2),A549 lung tumor cells,lowest
same,Effectiveness as an adjuvant for cell killing by BCNU (FIG. 2),[1],greatest
same,Enhancement of HT29 cell killing by BCNU,HT29 cells,capable of enhancing
same,"ED90, concentration required to kill 90% of HT29 cells with BCNU",HT29 cells; RPMI folate-free medium,15 µM
same,"ED90, concentration required to kill 90% of HT29 cells with BCNU",HT29 cells; [4],"24^c,d μM"
same,Effectiveness as an adjuvant for cell killing by BCNU (FIG. 2),"HT29 cells; HT29 cells, 40 μM BCNU, 2 hr exposure in folate free medium",somewhat greater
"Nc1nc(OCc2ccccc2)c2nc[nH]c2n1 [O^6-benzylguanine, reference compound]","ED90, concentration required to kill 90% of HT29 cells with BCNU",HT29 cells; [3],0.4^b μM
same,"ED90, concentration required to kill 90% of HT29 cells with BCNU",HT29 cells; [4],0.7^c μM
same,Inactivation of the P140K mutant alkyltransferase,[2],essentially resistant
